Results: publication PMC9405070, “Metabolic and Structural Insights into Hydrogen Sulfide Mis-Regulation in Enterococcus faecalis” (Antioxidants, 2022)

Columns and labels:
[1] = target: T1, Ef Pta / EfPta (phosphotransacetylase) (Enterococcus faecalis, UniProt A0ACD6TAM5); test: acetyl-CoA yield by LC-MS after […] s; assay type: biochemical; settings: 150 uM CoASSH as in situ mixture with equimolar CoASH, excess Na2S and CoA disulfide; 5 mM acetylphosphate, pH 8.0, room temperature, anaerobic
T1 construct: Ni-NTA and Superdex G200; C182 in CoA pocket, R319, S318, D325 in active site

[2] = target: T1, Ef Pta / EfPta (phosphotransacetylase); test: thioester formation at […] nm; assay type: biochemical; settings: 5 mM acetylphosphate; 25 mM Tris-HCl, 40 mM KCl, pH 8.0, room temperature, anaerobic; 10 uM to 5 mM CoA
[3] = target: Enterococcus faecalis coenzyme A persulfide (CoASSH) reductase (Enterococcus faecalis strain OG1RF); test: crystal structure; EfCoAPR as isolated from E. coli, with FAD and CoA (PAP moiety seen); crystals in 20% PEG 3350, 0.1 M Bis-Tris propane pH 6.50, 0.2 M sodium iodide; two molecules in the asymmetric unit; 2.05 Å
[4] = substrate: CC(=O)SCCNC(=O)CCNC(=O)[C@H](O)C(C)(C)COP(=O)(O)OP(=O)(O)OC[C@H]1O[C@@H](n2cnc3c(N)ncnc32)[C@H](O)[C@@H]1OP(=O)(O)O; test: purified protein; assay type: biochemical, Enterococcus faecalis; settings: 5 mM KH2PO4, 25 mM Tris-HCl, 40 mM KCl, pH 8.0, room temperature, anaerobic, 10 uM to 5 mM acetyl-CoA

CC(C)(COP(=O)(O)OP(=O)(O)OC[C@H]1O[C@@H](n2cnc3c(N)ncnc32)[C@H](O)[C@@H]1OP(=O)(O)O)[C@@H](O)C(=O)NCCC(=O)NCCSS [CoASSH]
inhibition of acetyl-CoA formation [1]: This inhibition of activity was due to CoASSH specifically

CoA
Km [2]: 69 µM

Enterococcus faecalis coenzyme A persulfide (CoASSH) reductase
stoichiometry N [3]: 2

B1: Ef Pta / EfPta (phosphotransacetylase) (Enterococcus faecalis OG1RF) (protein)
chain: MYDGFCKYKTGGFIVELFDSLKFKVVRRNIKIVFPEATDPRILGAAARLKSDELVEPILIGDPTDIANAAMARGINTSNFIIINPNDYEKWDEMVEAFVERRNGKATKEDAEKILKDVNYFGTMLTYMGIADGMVSGAIHSTGDTVRPALQIIKTKPGVSRTSGAFLMIRGRDQERYLFSDCAINVNPTAQELAEIAVDSAKTAELFDIEPKVSLLSFSTKGSAKAPEVTKVAEATKIAQELAPEYAIDGELQFDASYVSSVAQLKAPNSKVAGEATVFVFPDLQSGNIGYKIAQRLGNFEAIGPILQGLNKPVSDLSRGANEEDVYKLSIITAAQTLMND
notes: Ni-NTA and Superdex G200; C182 in CoA pocket, R319, S318, D325 in active site
Km [4]: 57 (±16) μM
